Results taken from patent US6812229B1, “Carbamate derivative and agricultural/horticultural fungicide” (Kumiai Chemical Industry Co., Ltd., priority 1999, dated 2004).

system: Erysiphe graminis; assay: Test for preventive effect on wheat powdery mildew; format: in vivo; settings: wheat seedlings (Norin-61-go), two-leaf stage, 500 ppm active ingredient, wettable powder, total diseased area of first leaves 10 days after inoculation
Description: 10 Wheat seeds (variety: Norin-61-go) were sown in each plastic pot having a diameter of 6 cm, and grown in a greenhouse. Wheat seedlings which reached a two-leaf stage were treated with 10 ml per pot of aqueous solutions of wettable powders prepared in accordance with Formulation Example 2, at a concentration of 500 ppm in terms of the active ingredients, and dried in the air. Then, the seedlings were inoculated with Erysiphe graminis spore and controlled in a greenhouse. 10 Days after the inoculation, the total diseased area of the first leaves in each pot was observed and evaluated on the basis of the standards shown in Table 21.

Structure (SMILES) | Evaluation
CON=C(c1ccccc1)c1cccc(CNC(=O)OC)c1 [A-42] | A (No diseased area)
CON=C(C)c1ccc(Cl)c(CNC(=O)OC)c1 [A-46] | A (No diseased area)

system: Septoria nodorum; assay: Test for preventive effect on Septoria leaf blotch of wheat; format: in vivo; settings: wheat seedlings (Norin-61-go), two-leaf stage, 50 ppm active ingredient, 10 ml per pot, evaluated 10 days after inoculation with Septoria nodorum
Source text: [table] 10 Wheat seeds (variety: Norin-61-go) were sown in each plastic pot having a diameter of 6 cm, and grown in a greenhouse. […] Then, the seedlings were inoculated with Septoria nodorum […] controlled in a greenhouse. 10 Days after the inoculation, the total diseased area of the first leaves in each pot was observed and evaluated on the basis of the standards shown in Table 21.

Structure (SMILES) | Evaluation (total diseased area of the first leaves)
COC(=O)NCc1cc(C(C)=NOCC2OCCO2)ccc1Cl [A-241] | B (Diseased area of less than 5%)
COC(=O)NCc1cc(C(C)=NOCc2ccc(C)cc2)ccc1C [A-363] | A (No diseased area)
COC(=O)NCc1cc(C(C)=NOCc2ccccc2C#N)ccc1C [A-360] | A (No diseased area)
COC(=O)NCc1cc(C(C)=NOC(C)c2cccc(Cl)c2)ccc1F (stereo not drawn) [A-379] | A (No diseased area)
COC(=O)NCc1cc(C(C)=NOC(C)c2ccccc2)ccc1Cl (stereo not drawn) [A-216] | A (No diseased area)
CCC(=NOCc1cccc(OC)c1)c1ccc(Cl)c(CNC(=O)OC)c1 [A-304] | A (No diseased area)
CCC(=NOCc1ccccc1C(F)(F)F)c1ccc(Cl)c(CNC(=O)OC)c1 [A-297] | B (Diseased area of less than 5%)
CON=C(C)CON=C(C)c1ccc(C)c(CNC(=O)OC)c1 [A-368] | A (No diseased area)
COC(=O)NCc1cc(C(C#N)=NOCc2ccccc2)ccc1Cl [A-7] | A (No diseased area)
COC(=O)N(Cc1cc(C(C)=NOCc2ccccc2C#N)ccc1C)Cc1ccccc1C#N [A-361] | B (Diseased area of less than 5%)
COC(=O)NCc1cccc(C(C)=NOCc2cccc(Cl)c2)c1 [A-339] | A (No diseased area)
COC(=O)NCc1cc(C(C)=NOCC(F)(F)F)ccc1Cl [A-70] | A (No diseased area)
COC(=O)NCc1cc(C(C)=NOCc2ccccc2Cl)ccc1Cl [A-207] | A (No diseased area)
COC(=O)NCc1cccc(C(C)=NOc2cccc(Cl)c2C#N)c1 [A-385] | B (Diseased area of less than 5%)
COC(=O)NCc1cccc(C(C)=NOCc2ccc(Cl)cc2Cl)c1 [A-387] | B (Diseased area of less than 5%)
COC(=O)NCc1cc(C(C)=NOCc2cccs2)ccc1Cl [A-415] | A (No diseased area)
COC(=O)NCc1cc(C(C)=NOCc2ccccc2Cl)ccc1C [A-294] | B (Diseased area of less than 5%)
COC(=O)NCc1cc(C(C)=NOCc2cccc(OC)c2)cc(C)c1Cl [A-157] | A (No diseased area)
CCC(C)ON=C(C)c1ccc(Cl)c(CNC(=O)OC)c1 (stereo not drawn) [A-53] | A (No diseased area)
COC(=O)NCc1cc(C(C)=NOCc2ccc(C)cc2)ccc1F [A-374] | A (No diseased area)
COC(=O)NCc1cc(C(C)=NOCc2ccccc2C#N)cc(C)c1Cl [A-356] | A (No diseased area)
CCCCCCCON=C(C)c1ccc(Cl)c(CNC(=O)OC)c1 [A-251] | A (No diseased area)
CC=CCON=C(C)c1ccc(Cl)c(CNC(=O)OC)c1 [A-189] | A (No diseased area)

Structure (SMILES) | Evaluation (total diseased area of the first leaves)
COC(=O)NCc1c(Cl)c(Cl)c(Cl)c(C(C)=NOCc2ccccc2)c1Cl [A-382] | B (Diseased area of less than 5%)
COC(=O)NCc1cc(C(C)=NOCc2cccc(Cl)n2)ccc1Cl [A-285] | A (No diseased area)
COC(=O)NCc1cc(C(C)=NOCc2cccc(C#N)n2)ccc1Cl [A-396] | A (No diseased area)
COC(=O)NCc1cc(C(C)=NOCc2ccc(OC)cc2)cc(C)c1Cl [A-158] | A (No diseased area)
COC(=O)NCc1cc(C(C)=NOCc2cccc(OC)c2)ccc1Cl [A-94] | A (No diseased area)
COC(=O)NCc1cc(C(C)=NOCC(C)C)ccc1Cl [A-54] | A (No diseased area)
COC(=O)NCc1cc(C(C)=NOCc2ncccc2C)ccc1Cl [A-306] | A (No diseased area)
COC(=O)NCc1cc(C(C)=NOC2C=CCC2OC)ccc1Cl (stereo not drawn) [A-411] | A (No diseased area)
COC(=O)NCc1cc(C(C)=NOCc2cccc(C(=O)OC)c2)ccc1Cl [A-278] | B (Diseased area of less than 5%)
COC(=O)NCc1cc(C(C)=NOCc2ccc3ccccc3c2)ccc1Cl [A-248] | B (Diseased area of less than 5%)
COC(=O)NCc1cc(C(C)=NOCc2cccc(Cl)c2)ccc1F [A-371] | A (No diseased area)
COC(=O)N(Cc1cccc(OC)c1)Cc1cc(C(C)=NOCc2cccc(OC)c2)ccc1C [A-322] | A (No diseased area)
COC(=O)NCc1cc(C(C)=NOCC2CCCO2)ccc1Cl (stereo not drawn) [A-443] | B (Diseased area of less than 5%)
COC(=O)NCc1cc(C(C)=NOCc2ccccc2C#N)ccc1Cl [A-220] | A (No diseased area)
COC(=O)NCc1cc(C(C)=NOCc2ccccc2C(F)(F)F)ccc1C [A-314] | A (No diseased area)
COC(=O)NCc1cc(C(=NOCc2ccccn2)C2CC2)ccc1Cl [A-405] | A (No diseased area)
COC(=O)NCc1cc(C(C)=NOCc2cccc(OC(F)(F)F)c2)ccc1Cl [A-218] | A (No diseased area)
CCON=C(CC)c1ccc(Cl)c(CNC(=O)OC)c1 [A-111] | A (No diseased area)
COC(=O)NCc1cccc(C(C)=NOCc2cccc(Cl)c2Cl)c1 [A-386] | B (Diseased area of less than 5%)
COC(=O)NCc1cc(C(C)=NOC(C)c2ccccc2C)ccc1Cl (stereo not drawn) [A-406] | A (No diseased area)
COC(=O)NCc1cc(C(C)=NOCc2cccc(Cl)c2Cl)ccc1Cl [A-252] | A (No diseased area)
COC(=O)NCc1cccc(C(C)=NOCc2ccccc2C)c1 [A-343] | A (No diseased area)
COC(=O)NCc1cccc(C(C)=NOCc2ccccc2C(F)(F)F)c1 [A-348] | B (Diseased area of less than 5%)

Structure (SMILES) | Evaluation (total diseased area of the first leaves)
COC(=O)NCc1cc(C(C)=NOCc2cccc(C#N)c2)ccc1F [A-428] | A (No diseased area)
COC(=O)NCc1cc(C(C)=NOCc2ccc(C#N)cc2)ccc1Cl [A-103] | B (Diseased area of less than 5%)
COC(=O)NCc1cc(C(C)=NOC2C=CC(C(Cl)(Cl)Cl)C2)ccc1Cl (stereo not drawn) [A-444] | B (Diseased area of less than 5%)
COC(=O)NCc1cc(C(C)=NOCc2ccc(Cl)c(Cl)c2)ccc1Cl [A-256] | A (No diseased area)
COC(=O)NCc1cc(C(C)=NOCc2cccc(C)n2)ccc1Cl (single isomer, unassigned) [A-286] | A (No diseased area)
COC(=O)NCc1cc(C(C)=NOCC(=O)c2ccc(OC)cc2)ccc1Cl [A-404] | A (No diseased area)
COC(=O)NCc1cc(C(C)=NOCc2cscn2)ccc1Cl [A-416] | A (No diseased area)
COC(=O)NCc1cc(C(C)=NOC(C)c2ccccc2Cl)ccc1Cl (stereo not drawn) [A-309] | B (Diseased area of less than 5%)
COC(=O)NCc1c(C)c(C)c(C)c(C(C)=NOCc2ccccc2)c1C [A-381] | A (No diseased area)
COC(=O)NCc1cc(C(C)=NOCc2cccc(C)c2)ccc1C [A-362] | A (No diseased area)
COC(=O)NCc1cc(C(C)=NOCC=Cc2ccccc2)ccc1Cl [A-201] | A (No diseased area)
COC(=O)NCc1cc(C(C)=NOCc2ccc(C(F)(F)F)cc2)cc(C)c1Cl [A-160] | B (Diseased area of less than 5%)
COC(=O)NCc1cc(C(C)=NOCc2ccccc2OC(F)(F)F)ccc1Cl [A-217] | A (No diseased area)
COC(=O)NCc1cccc(C(C)=NOCc2cccc(C(F)(F)F)c2)c1 [A-349] | A (No diseased area)
COC(=O)NCc1cc(C(C)=NOCc2cccc(C(F)(F)F)c2)cc(C)c1Cl [A-159] | A (No diseased area)
COC(=O)NCc1cccc(C(C)=NOCc2ccccc2F)c1 [A-398] | A (No diseased area)
COC(=O)NCc1cc(C(C)=NOCc2cccc(Cl)c2)ccc1Cl [A-208] | B (Diseased area of less than 5%)
COC(=O)NCc1cc(C(C)=NOCc2ccccc2F)ccc1C [A-342] | A (No diseased area)
COC(=O)NCc1cc(C(C)=NOCc2cccc(C#N)c2)ccc1Cl [A-102] | A (No diseased area)
COC(=O)NCc1cc(C(C)=NOc2ccccc2)ccc1Cl [A-73] | A (No diseased area)
COC(=O)NCc1cc(C(=NOCc2ccccc2Cl)C2CC2)ccc1Cl [A-341] | A (No diseased area)
